Assay results: the NIST ThermoML archive (doi:10.1016/j.jct.2015.07.005)
Values joined by “and” are separate entries in the source; they are usually repeats but may differ in a detail not shown here. Equal values may be shown once.

Conditions: Gas, Frequency=0.005 MHz, Spherical cavity resonance method

F/C=C/C(F)(F)F [trans-1,3,3,3-tetrafluoropropene]
Conditions	speed of sound
379.99 K, 452.13 kPa	166.16 m/s
379.99 K, 784.29 kPa	161.02 m/s
379.99 K, 784.34 kPa	161.02 m/s
379.99 K, 1195.5 kPa	154.18 m/s
379.99 K, 1195.6 kPa	154.18 m/s
379.99 K, 2008.2 kPa	138.61 m/s
380 K, 98.61 kPa	171.32 m/s
380 K, 98.63 kPa	171.32 m/s
380 K, 297.93 kPa	168.44 m/s
380 K, 452.13 kPa	166.16 m/s
380 K, 784.28 kPa	161.02 m/s
380 K, 1195.5 kPa	154.18 m/s
380 K, 1608.3 kPa	146.68 m/s
380 K, 2008.2 kPa	138.61 m/s
380 K, 2215.6 kPa	134.03 m/s
380 K, 2215.7 kPa	134.03 m/s
380 K, 2385.9 kPa	130 m/s
380 K, 2386 kPa	130 m/s
380 K, 2606.5 kPa	124.35 m/s
380 K, 2606.6 kPa	124.35 m/s
380.01 K, 2606.6 kPa	124.35 m/s
380.01 K, 2822.2 kPa	118.21 m/s
380.01 K, 2822.3 kPa	118.22 m/s
380.02 K, 2822.3 kPa	118.22 m/s
401.99 K, 98.41 kPa	176.35 m/s
401.99 K, 98.44 kPa	176.35 m/s
401.99 K, 98.45 kPa	176.35 m/s
401.99 K, 98.46 kPa	176.35 m/s
402 K, 98.39 kPa	176.35 m/s
402 K, 98.4 kPa	176.35 m/s
402 K, 98.42 kPa	176.35 m/s
402 K, 98.43 kPa	176.35 m/s
402 K, 98.44 kPa	176.35 m/s
402 K, 98.45 kPa	176.35 m/s
402 K, 98.46 kPa	176.35 m/s
402 K, 299.24 kPa	173.94 m/s
402 K, 299.25 kPa	173.94 m/s
402 K, 299.26 kPa	173.94 m/s
402 K, 503.14 kPa	171.43 m/s
402 K, 504.13 kPa	171.42 m/s
402 K, 504.78 kPa	171.41 m/s
402 K, 504.99 kPa	171.4 m/s
402 K, 505.27 kPa	171.4 m/s
402 K, 505.76 kPa	171.4 m/s
402 K, 505.81 kPa	171.4 m/s
402 K, 505.96 kPa	171.4 m/s
402 K, 506.02 kPa	171.4 m/s
402.01 K, 502.88 kPa	171.44 m/s
402.01 K, 503 kPa	171.43 m/s
402.01 K, 505.02 kPa	171.41 m/s
402.01 K, 793.53 kPa	167.78 m/s
402.01 K, 793.54 kPa	167.77 m/s and 167.77 m/s
402.01 K, 1189.8 kPa	162.56 m/s and 162.56 m/s
402.01 K, 1595.9 kPa	156.94 m/s
402.01 K, 1596 kPa	156.94 m/s
402.02 K, 1595.8 kPa	156.94 m/s and 156.94 m/s
402.02 K, 1595.9 kPa	156.94 m/s
402.02 K, 1596 kPa	156.94 m/s
402.02 K, 1596.1 kPa	156.94 m/s
402.02 K, 1596.2 kPa	156.94 m/s
402.02 K, 1596.3 kPa	156.94 m/s
402.02 K, 1996.4 kPa	151.09 m/s
402.03 K, 1996.4 kPa	151.09 m/s and 151.09 m/s
402.03 K, 2385.1 kPa	145.09 m/s
402.03 K, 2385.2 kPa	145.1 m/s and 145.1 m/s
402.04 K, 2832 kPa	137.75 m/s and 137.75 m/s
402.04 K, 2832.1 kPa	137.75 m/s and 137.75 m/s
419.97 K, 100.24 kPa	180.17 m/s
419.97 K, 100.26 kPa	180.17 m/s
419.97 K, 100.28 kPa	180.17 m/s
419.97 K, 298.93 kPa	178.09 m/s
419.98 K, 100.2 kPa	180.17 m/s
419.98 K, 100.21 kPa	180.17 m/s
419.98 K, 100.22 kPa	180.17 m/s
419.98 K, 100.23 kPa	180.17 m/s
419.98 K, 100.24 kPa	180.17 m/s
419.98 K, 100.25 kPa	180.17 m/s
419.98 K, 100.27 kPa	180.17 m/s
419.98 K, 100.28 kPa	180.17 m/s
419.98 K, 298.92 kPa	178.09 m/s
419.98 K, 298.93 kPa	178.09 m/s
419.98 K, 476.26 kPa	176.21 m/s
